The values that follow come from BindingDB's records for doi:10.1016/j.bmcl.2007.11.134 (Korea Institute of Science and Technology, 2008).

In one test the target is Reverse transcriptase protein (Human immunodeficiency virus 1, UniProt Q9WJQ2). Nature of the test: Inhibition of HIV1 reverse transcriptase K103N mutant by HeLa-MAGI assay.
With `Cc1c(C(C)(C)C)s/c(=N\S(=O)(=O)c2cccc([N+](=O)[O-])c2)n1C` [3-substituted thiazolidene deriv. 17a], the IC50 (in general, the concentration needed to halve the response being measured) stood at 12.9 µM.

Molecular target in the next test: not listed separately
Briefly: Inhibition of HIV1 reverse transcriptase K103N mutant by HeLa-MAGI assay.
The compound `COc1ccc(NC(=O)COc2ccc(Cl)cc2C(=O)c2cc(F)cc(F)c2)cn1` displayed an IC50 of 72 nM.
Same read-out and setting: to `CC(C)c1s/c(=N\S(=O)(=O)c2cc(Br)ccc2O)n(C)c1Cl` [5-bromo-N-[(2Z)-4-chloro-3-methyl-5-(propan-2-yl)-2,3-dihydro-1,3-thiazol-2-ylidene]-2-hydroxybenzene-1-sulfonamide] belongs 40 nM; to `CNS(=O)(=O)c1ccc(NC(=O)COc2ccc(Cl)cc2C(=O)c2cc(F)cc(C(F)(F)F)c2)c(C)c1`, 2 nM; to `Cc1cc(S(N)(=O)=O)ccc1NC(=O)COc1ccc(Cl)cc1C(=O)c1cncc(C#N)c1`, 141 nM.
Same read-out and setting: for `Cc1cc(Cl)cc(C(=O)c2cc(Cl)ccc2OCC(=O)Nc2ccc(S(N)(=O)=O)cc2C)c1` the value was 3.6 nM.
The same measure, in the same setting: to `Cc1cc(N2CC[S+]([O-])CC2)ccc1NC(=O)COc1ccc(Cl)cc1C(=O)c1cccc(C#N)c1` belongs 5 nM; to `O=C(COc1ccc(Cl)cc1C(=O)c1cc(F)cc(F)c1)Nc1ccc(Cl)nc1`, 68 nM.
Compound `Cc1c(C(C)(C)C)s/c(=N\S(=O)(=O)c2cccc(Cl)c2)n1C` [N-[(2Z)-5-tert-butyl-3,4-dimethyl-2,3-dihydro-1,3-thiazol-2-ylidene]-3-chlorobenzene-1-sulfonamide] came in with an IC50 of 10000 nM.
Same read-out and setting: to `Cc1cc(OCCCS(N)(=O)=O)ccc1NC(=O)COc1ccc(Cl)cc1C(=O)c1cc(F)cc(C(F)(F)F)c1` [GW3011] belongs 4 nM.
Still for that read-out and setting: for `Cc1cc(NC(=O)CCN2CCOCC2)ccc1NC(=O)COc1ccc(Cl)cc1C(=O)c1cc(F)cc(F)c1` the value was 8.9 nM; for `CC(C)c1s/c(=N\S(=O)(=O)c2cccc([N+](=O)[O-])c2)n(C)c1Cl` [thiazolidenebenzenesulfonamide deriv. 17k], 6920 nM.
`Cc1c(C(C)C)s/c(=N\S(=O)(=O)c2cccc([N+](=O)[O-])c2)n1C` [N-(3,4-Dimethyl-5-isopropyl-1,3-thiazol-2(3H)-ylidene)-3-nitrobenzenesulfonamide] came in with an IC50 of 20000 nM.
The same measure, in the same setting: to `Cc1c(C(C)(C)C)s/c(=N\S(=O)(=O)c2ccccc2O)n1C` [N-[(2Z)-5-tert-butyl-3,4-dimethyl-2,3-dihydro-1,3-thiazol-2-ylidene]-2-hydroxybenzene-1-sulfonamide] belongs 31600 nM.
Still for that read-out and setting: to `Cc1[nH]/c(=N/S(=O)(=O)c2cccc([N+](=O)[O-])c2)sc1C(C)(C)C` belongs 32400 nM; to `Cc1c(C(C)(C)C)s/c(=N\S(=O)(=O)c2cc(Cl)ccc2O)n1C` [N-(5-tert-Butyl-3,4-dimethyl-1,3-thiazol-2(3H)-ylidene)-5-chloro-2-hydroxybenzenesulfonamide], 1000 nM.
Take `Cc1cc(S(N)(=O)=O)ccc1NC(=O)COc1ccc(Cl)cc1C(=O)c1cc(F)cc(C(F)(F)F)c1` [GW4511]: the IC50 came out at 2 nM.
Still for that read-out and setting: for `Cc1cc(S(N)(=O)=O)ccc1NC(=O)COc1ccc(Cl)cc1C(=O)c1cccc(C#N)c1` the value was 1.5 nM; for `Cc1nc(S(N)(=O)=O)ccc1NC(=O)COc1ccc(Cl)cc1C(=O)c1cc(Cl)cc(C#N)c1`, 3 nM.
Still for that read-out and setting: for `CC(C)c1s/c(=N\S(=O)(=O)c2cc(Cl)ccc2O)n(C)c1Cl` [5-chloro-N-[(2Z)-4-chloro-3-methyl-5-(propan-2-yl)-2,3-dihydro-1,3-thiazol-2-ylidene]-2-hydroxybenzene-1-sulfonamide] the value was 158 nM; for `Cc1cc(C#N)cc(C(=O)c2cc(Cl)ccc2OCC(=O)Nc2cnc(S(N)(=O)=O)cc2C)c1`, 7.1 nM.
Regarding `Cc1cc(OCCCNC(N)=O)ccc1NC(=O)COc1ccc(Cl)cc1C(=O)c1cc(F)cc(C(F)(F)F)c1`, it took 4 nM to reach half-maximal inhibition (IC50).
`CCc1s/c(=N\S(=O)(=O)c2cccc([N+](=O)[O-])c2)n(C)c1C` [N-[(2Z)-5-ethyl-3,4-dimethyl-2,3-dihydro-1,3-thiazol-2-ylidene]-3-nitrobenzene-1-sulfonamide] displayed an IC50 of 6310 nM.
Compound `Cc1c(C(C)C)s/c(=N\S(=O)(=O)c2cc(C#N)ccc2C#N)n1C` [thiazolidenebenzenesulfonamide deriv.] registered an IC50 of 3980 nM.
On the same count and under the same terms, for `Cc1cc(N2CC[S+]([O-])CC2)ccc1NC(=O)COc1ccc(Cl)cc1C(=O)c1ccccc1C#N` the value was 155 nM.
The same measure, in the same setting: for `CCN(CC)CCCNc1ccc(NC(=O)COc2ccc(Cl)cc2C(=O)c2cc(F)cc(F)c2)c(C)c1` the value was 95 nM.
Turning to `CC(C)c1s/c(=N\S(=O)(=O)c2cc(Cl)ccc2C#N)n(C)c1Cl` [5-Chloro-N-(4-chloro-5-isopropyl-3-methyl-1,3-thiazol-2(3H)-ylidene)-2-cyanobenzenesulfonamide], the IC50 is 3980 nM.
Still for that read-out and setting: to `COc1cc(OC)cc(C(=O)c2cc(Cl)ccc2OCC(=O)Nc2ccc(S(N)(=O)=O)cc2C)c1` belongs 372 nM; to `Cc1cc(S(N)(=O)=O)ccc1NC(=O)COc1ccc(Cl)cc1C(=O)c1cc(C#N)cc(C(F)(F)F)c1`, 1.1 nM; to `Cc1ccccc1NC(=O)COc1ccc(Cl)cc1C(=O)c1cc(F)cc(F)c1`, 38 nM.
On the same count and under the same terms, for `Cc1cc(N2CC[S+]([O-])CC2)ccc1NC(=O)COc1ccc(Cl)cc1C(=O)c1ccccc1` the value was 100 nM.
Still for that read-out and setting: for `COCCOCCOc1ccc(NC(=O)COc2ccc(Cl)cc2C(=O)c2cc(F)cc(C(F)(F)F)c2)c(C)c1` the value was 16 nM; for `Cc1cc(C#N)cc(C(=O)c2cc(Cl)ccc2OCC(=O)Nc2ccc(S(N)(=O)=O)cc2C)c1`, 0.891 nM.
Turning to `Cc1c(C(C)C)s/c(=N\S(=O)(=O)c2cc(Br)ccc2C#N)n1C` [5-Bromo-2-cyano-N-(5-isopropyl-3,4-dimethyl-1,3-thiazol-2(3H)-ylidene)benzenesulfonamide], the IC50 was found to be 3980 nM.
The same measure, in the same setting: to `Cc1cc(C#N)cc(C(=O)c2cc(Cl)ccc2OCC(=O)Nc2ccc(S(N)(=O)=O)nc2C)c1` belongs 6 nM; to `CC(C)c1s/c(=N\S(=O)(=O)c2cc(C#N)ccc2C#N)n(C)c1Cl` [N-(4-Chloro-5-isopropyl-3-methyl-1,3-thiazol-2(3H)-ylidene)-2,5-dicyanobenzenesulfonamide], 3020 nM.
As for `Cc1c(C(C)(C)C)s/c(=N\S(=O)(=O)c2cc(Cl)ccc2N)n1C` [2-amino-N-[(2Z)-5-tert-butyl-3,4-dimethyl-2,3-dihydro-1,3-thiazol-2-ylidene]-5-chlorobenzene-1-sulfonamide], the IC50 was determined as 15800 nM.
Still for that read-out and setting: for `Cc1cc(C#N)cc(C(=O)c2cc(Cl)ccc2OCC(=O)Nc2ncc(S(N)(=O)=O)cc2C)c1` the value was 93 nM; for `Cc1cc(S(N)(=O)=O)ccc1NC(=O)COc1ccc(Cl)cc1C(=O)c1cc(Cl)cc(C#N)c1` [GW678248], 1 nM; for `Cc1cc(S(=O)(=O)N(C)C)ccc1NC(=O)COc1ccc(Cl)cc1C(=O)c1cc(F)cc(C(F)(F)F)c1`, 6 nM.
Still for that read-out and setting: for `C=Cc1s/c(=N\S(=O)(=O)c2cccc([N+](=O)[O-])c2)n(C)c1C` [N-(3,4-Dimethyl-5-vinyl-1,3-thiazol-2(3H)-ylidene)-3-nitrobenzenesulfonamide] the value was 6170 nM; for `Cc1cc(S(N)(=O)=O)ncc1NC(=O)COc1ccc(Cl)cc1C(=O)c1cc(Cl)cc(C#N)c1`, 5 nM.
`Cc1cc(S(N)(=O)=O)ccc1NC(=O)COc1ccc(Cl)cc1C(=O)c1cc(Br)cc(C(F)(F)F)c1` gave an IC50 of 93 nM.
The same measure, in the same setting: for `Cc1cc(C)cc(C(=O)c2cc(Cl)ccc2OCC(=O)Nc2ccc(S(N)(=O)=O)cc2C)c1` the value was 3.3 nM.
Turning to `Cc1cc(NCCCn2ccnc2)ccc1NC(=O)COc1ccc(Cl)cc1C(=O)c1cc(F)cc(F)c1`, the IC50 turned out to be 158 nM.
On the same count and under the same terms, to `CC(C)c1s/c(=N\S(=O)(=O)c2cccc([N+](=O)[O-])c2)n(C)c1C(F)(F)F` [N-[(2Z)-3-methyl-5-(propan-2-yl)-4-(trifluoromethyl)-2,3-dihydro-1,3-thiazol-2-ylidene]-3-nitrobenzene-1-sulfonamide] belongs 41700 nM; to `Cc1cc(S(N)(=O)=O)ccc1NC(=O)COc1ccc(Cl)cc1C(=O)c1cc(Cl)cc(Br)c1`, 6.2 nM.
The same measure, in the same setting: to `Cc1c(C(C)C)s/c(=N\S(=O)(=O)c2cc(Cl)ccc2C#N)n1C` [5-chloro-2-cyano-N-[(2Z)-3,4-dimethyl-5-(propan-2-yl)-2,3-dihydro-1,3-thiazol-2-ylidene]benzene-1-sulfonamide] belongs 6310 nM.
Turning to `Cc1cc(NCCCN2CCCC2)ccc1NC(=O)COc1ccc(Cl)cc1C(=O)c1cc(F)cc(F)c1`, 110 nM corresponded to half-maximal inhibition (IC50).
Still for that read-out and setting: to `Cc1cc(N2CC[S+]([O-])CC2)ccc1NC(=O)COc1ccc(Cl)cc1C(=O)c1ccc(C#N)cc1` belongs 44 nM.
